The experiment deals with adult human epidermal keratinocytes (aHEK). Put plainly: Proliferation of adult human epidermal keratinocytes (aHEK). The following applies: 100 ug/ml; vs water (0 μg/ml). Format: cell-based. The source says:
Example 3(e): FIG. 6 depicts the effect of threitol-1 diphosphate on the proliferation of adult human epidermal keratinocytes (aHEK).

Turning to `O=P(O)(O)OP(=O)(O)OC[C@@H](O)[C@H](O)CO` [DP sSBD4, threitol-1-diphosphate], the “stimulation of human adult epidermal keratinocyte proliferation” value came to 17%.

The values are drawn from US8236784B2, “Composition comprising threitol phosphate and salts thereof” (Sunny Biodiscovery, Inc., priority 2007, dated 2012).
